Several values for one entry are separate records, joined by “and”; a condition that tells them apart may be missing. Equal entries are not always repeated.
Biological target: T1, DmOctβ1 receptor (Drosophila melanogaster, UniProt Q9VCZ3)
T1 construct: expressed in transfected cells; host or cells: flpTM cells (HEK293 flpIn, Invitrogen #750-07, carrying the CNGA2 variant)
T1 sequence (Q9VCZ3 1-508): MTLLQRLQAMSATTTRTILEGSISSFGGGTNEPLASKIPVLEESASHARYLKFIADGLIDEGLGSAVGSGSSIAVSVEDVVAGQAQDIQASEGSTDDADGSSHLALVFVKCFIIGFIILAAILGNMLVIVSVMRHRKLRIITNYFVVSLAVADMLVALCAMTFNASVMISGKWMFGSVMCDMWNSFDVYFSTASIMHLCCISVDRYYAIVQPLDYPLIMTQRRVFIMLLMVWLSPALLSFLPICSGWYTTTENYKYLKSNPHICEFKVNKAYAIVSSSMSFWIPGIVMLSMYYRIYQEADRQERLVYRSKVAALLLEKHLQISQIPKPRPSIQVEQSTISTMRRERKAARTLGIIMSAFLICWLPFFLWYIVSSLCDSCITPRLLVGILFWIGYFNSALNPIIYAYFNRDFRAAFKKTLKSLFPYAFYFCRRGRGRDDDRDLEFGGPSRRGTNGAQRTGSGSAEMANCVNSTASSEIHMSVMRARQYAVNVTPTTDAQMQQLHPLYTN
Assay: Stopped-flow Ca2+ fluorescence measurements, flpTM-DmOctβ1 cells, octopamine
Assay type: cell-based
Protocol: In successive stopped-flow measurements, the flpTM-DmOctβ1 cells loaded with Fluo-4 were stimulated with increasing octopamine (1 nM–3 µM) and NKH477 (100 nM–300 µM) concentrations. The fluorescence intensities were monitored over 80 s and 100 s, respectively (Figure 4A1,B1). The fluorescence intensities increased and finally reached a plateau with increasing concentrations of both of the ligands. However, the saturating ligand concentrations differed strongly between octopamine (≥300 nM) and NKH477 (≥100 µM). By plotting the maximal changes in fluorescence (ΔF/F0) against ligand concentrations, concentration–response curves were generated and EC50 values were calculated (Figure 4C). […] As observed for the DmOctα1B cell lines (see Figure 3D), the signal response times of flpTM-DmOctβ1 cells were faster at higher ligand concentrations (Figure 4A2,B2). In Figure 4D, the time until the signals were detected (for details, see Materials and Methods, Section 4.4) are plotted for the ligand concentrations covering the calculated EC50 value (dynamic range) and for saturating concentrations (saturating range). The signal response times of the flpTM-DmOctβ1 cells for octopamine were in the range of 30 s (dynamic range) and 6 s (saturating range), whereas the signal detection upon NKH477 application was observed after 50 s (dynamic range) and 16 s (saturating range). The signal response times were about three- to five-fold faster at the saturating concentrations in comparison to the octopamine and NKH477 concentrations in the dynamic range.
As described for the Fluo-4-loaded flpTM-DmOctβ1 cells, similar experiments were performed with the flpTM-DmOctβ1-GCaMP3.0 cells (Figure 5). The cells were successively mixed with increasing concentrations of octopamine (30 pM–100 nM) or NKH477 (30 nM–100 µM) and the fluorescence intensities were recorded over 100 s. For both of the ligands, increasing ligand concentrations led to an increase in the fluorescence emission finally reaching a plateau (Figure 5A1,B1).
For the stopped-flow measurements, the SFM-400 system (BioLogic, Münster, Germany) was used. The main component of the stopped-flow setup is the SFM-400 module with four 10 mL syringes, which can be filled by external valves. The syringes are driven by step motors. The reactants can be mixed in three individual mixing chambers (M1–M3). The volume between M1 and M2 is 21 µL, and 31 µL between M2 and M3. The observation chamber is a quartz cuvette (FC-15) with a reaction volume of 31 µL, installed behind M3. To avoid fluctuations of the reaction mixture in the cuvette, which might lead to noisy and inconsistent signals, a hard stop valve located behind the cuvette can be closed after injection of the reactants. The stopped-flow module is controlled via a MPS-60 control unit (BioLogic). Data acquisition and operation of the system were performed with the Bio-Kine 32 v4.74 software (BioLogic).
The reactions in the cuvette were analyzed via the changes in the fluorescence. A 150 W Xe/Hg-lamp (ALX-220; BioLogic) was used as a light source for the excitation. The excitation light was guided via a light guide towards the cuvette. To determine the wavelength of the excitation light, a 482 nm bandpass filter (482/35 nm BrightLine® single-band bandpass filter; Semrock, Rochester, NY, USA) was used. A heat protection filter (3 mm; KG1, Schott; Mainz, Germany) was placed between the Xe/Hg-lamp and the excitation filter. The fluorescence was detected with a photomultiplier (PMS 200, BioLogic) installed rectangularly to the light path of the excitation light. Between the cuvette and the photomultiplier tube a 535 nm bandpass emission filter (XF3007 535AF35; Horiba, Oberursel, Germany) was placed to select for the emission light being detected by the photomultiplier. A voltage of 600 V was applied to the photomultiplier.
The fluorescence measurements were performed either directly with the cells expressing GCaMP3.0 or after loading the cells with Fluo-4-AM. […]

For `NCC(O)c1ccc(O)cc1` (stereo not drawn) [octopamine], the Signal Response Time (dynamic range (concentrations around EC50), flpTM-DmOctβ1 cells loaded with Fluo-4) was roughly 30 s, the “Signal Response Time” value (saturating concentration, flpTM-DmOctβ1-GCaMP3.0 cells, mean ± SEM) was roughly 6 s and the “Signal Response Time” value (saturating concentration, flpTM-DmOctβ1-GCaMP3.0 cells, mean ± SEM, listed as Octopamine) was 6.00 ± 0.20 s. For the same compound, the “Signal Response Time” value (saturating concentration, flpTM-DmOctβ1 cells loaded with Fluo-4, mean ± SEM) was roughly 6 s, the “Signal Response Time” value (saturating concentration, flpTM-DmOctβ1 cells loaded with Fluo-4, mean ± SEM, listed as Octopamine) was 6.00 ± 0.13 s and the Signal Response Time (saturating ligand concentration, flpTM-DmOctβ1 cell lines, Fluo-4 and GCaMP3.0) was 6 s and ≈ 6 s. The EC50 (stopped-flow, flpTM-DmOctβ1-GCaMP3.0 cells, mean ± SEM) was ~1.8 nM and 1.78 nM and 1.8 nM, the saturating ligand concentration (stopped-flow, flpTM-DmOctβ1 cells loaded with Fluo-4) was no less than 300 nM and the EC50 (stopped-flow, flpTM-DmOctβ1 cells loaded with Fluo-4, mean ± SEM) was ~22 nM and 22 nM.

— publication PMC9369311, “Examination of Intracellular GPCR-Mediated Signaling with High Temporal Resolution” (International Journal of Molecular Sciences, 2022)
